Each structure is given as a SMILES string. Values after ≈ are worked out from the molar mass of the structure shown.

The conditions of the data set: buffer; pH 7.4; 200.0 µM.
The compound `CNC(=O)OCCSCCS(=O)(=O)c1ccc(Cl)cc1` displayed a kinetic solubility of 16.6 µg/mL (≈ 49.1 µM).
Regarding `Cc1cc(-c2onc(C)c2C(=O)Nc2ccc(C(F)(F)F)cc2)no1`, the kinetic solubility was less than 0.3 µg/mL.
Take `O=c1oc2ccccc2c(Cl)c1CN1CCCCC1`: the solubility (kinetic) was determined as 41.4 µg/mL (≈ 149 µM).
In the case of `Cc1cccc(NC(=O)c2cnccn2)c1`, the solubility (kinetic) was 22.1 µg/mL (≈ 104 µM).
For the compound `O=C(NCCNC(=O)c1cc(Cl)ccc1Cl)c1cnccn1`, the kinetic solubility was more than 50.9 µg/mL.
The same measure for `O=C(Nc1ccc(NC(=O)C2CC2)cn1)c1ccccc1`: 41.6 µg/mL (≈ 148 µM); for `COc1cc(N)c(Cl)cc1C(=O)OCC(=O)N1c2ccccc2NC(=O)C1(C)C`: 5.5 µg/mL (≈ 13.2 µM); for `CCOc1ccc2ccccc2c1C1NC(=O)N(C)C(C)=C1C(=O)OCCOC` (stereo not given): 1.9 µg/mL (≈ 4.77 µM).
The same measure for `NS(=O)(=O)c1ccc(CCNc2ccccc2[N+](=O)[O-])cc1`: 2.9 µg/mL (≈ 9.02 µM).
The same measure for `CN1C2CCC1CC(NS(=O)(=O)c1cccc(C(F)(F)F)c1)C2` (stereo not given): 48.3 µg/mL (≈ 139 µM); for `COc1cc2c(cc1OC)C(c1ccccc1)NCC2` (stereo not given): more than 40.4 µg/mL.
Compound `COc1ccc(/C(N)=N/OC(=O)CC2CCCCC2)cc1` showed a solubility (kinetic) of 2.8 µg/mL (≈ 9.64 µM).
The same measure for `CCn1c(=O)c2sccc2n(CC(=O)NC2CCCC2)c1=O`: 45.4 µg/mL (≈ 141 µM); for `COc1ccc(Cl)cc1NC(=O)NCCN1CCCCC1`: more than 46.8 µg/mL; for `Cc1cc(C)c(S(=O)(=O)c2ccc(F)cc2C)c(=O)[nH]1`: more than 44.3 µg/mL.
The compound `CN(C(=O)CN1CCN(c2ccccc2F)CC1)C1CCCc2ccccc21` (stereo not given) showed a solubility (kinetic) of more than 57.2 µg/mL.
For `O=C(N/N=C/c1ccc(N2CCOCC2)cc1)c1ccncc1`, the kinetic solubility is more than 46.6 µg/mL.
`CCN1CCN(C(=O)C(N)Cc2ccccc2)CC1` (stereo not given) displayed a kinetic solubility of 37.5 µg/mL (≈ 143 µM).
Consider `COc1ccc(-c2ocnc2C(=O)Nc2ccc3c(c2)CCC3)cc1`, for which the kinetic solubility stood at 1.7 µg/mL (≈ 5.08 µM).
For the compound `CN(C)c1cc[n+](CC(=O)c2ccc(Br)cc2)cc1.[Cl-]`, the kinetic solubility was 52.8 µg/mL.
`NC(=O)CCn1cnc2ccccc21` displayed a solubility (kinetic) of 25.5 µg/mL (≈ 135 µM).
As for `CC(C)(C)C(=O)OCc1nc(-c2ccc(C(F)(F)F)cc2)cs1`, the kinetic solubility was less than 0.7 µg/mL.
Regarding `Cc1ccc(Cl)cc1NC(C#N)c1ccccc1` (stereo not given), the solubility (kinetic) stood at 6.5 µg/mL (≈ 25.3 µM).
The same measure for `CSc1cccc(NC(=O)COC(=O)C2(c3ccccc3)CC2)c1`: 10.7 µg/mL (≈ 31.3 µM).
`CC(C)N(C(=O)Cc1ccccc1[N+](=O)[O-])C(C)C`: the solubility (kinetic) was more than 39.6 µg/mL.
The figure for `Cc1[nH]c2ccccc2c1C(=O)COC(=O)c1nccnc1N` is 6.9 µg/mL (≈ 22.2 µM); for `COc1cccc(NC(=O)c2ccc3c(c2)CCCC3)c1` it is 6 µg/mL (≈ 21.3 µM).
The same measure for `Cc1cc(C)cc(OCc2nc(-c3cccnc3)no2)c1`: 13.3 µg/mL (≈ 47.3 µM); for `COc1cc(N2C(=O)CC3(CCCC3)CC2=O)cc(OC)c1OC`: 47.2 µg/mL (≈ 142 µM); for `CC(C)=CC1C(C(=O)NCCOc2ccccc2)C1(C)C` (stereo not given): 17.7 µg/mL (≈ 61.6 µM).
`COc1cccc(C2Nc3ccccc3NC3=C2C(=O)CC(C)(C)C3)c1` (stereo not given) yielded a kinetic solubility of 40.2 µg/mL (≈ 115 µM).
`C=CCOc1ccccc1CNc1ccc2[nH]c(=O)[nH]c2c1` came in with a kinetic solubility of more than 44.3 µg/mL.
The compound `CCOc1ccc(NC(=O)CCN2C(=S)NC(C)(C)CC2C)cc1` (stereo not given) came in with a solubility (kinetic) of 41.5 µg/mL (≈ 119 µM).
With `Cc1cnc(NC(=O)Cc2ccccc2F)s1`, the kinetic solubility was determined as 3.4 µg/mL (≈ 13.6 µM).
`O=C(Cc1cccs1)Nc1ccccc1` returned a solubility (kinetic) of more than 32.6 µg/mL.
The same measure for `CN[C@H](CC(=O)O)C(=O)O`: more than 22.1 µg/mL; for `COc1ccc2cc(S(=O)(=O)N3CCCC(C)C3)ccc2c1` (stereo not given): less than 0.7 µg/mL.
`Cc1nc(C)c(-c2csc(Nc3ncccc3C)n2)s1`: the solubility (kinetic) was less than 0.2 µg/mL.
The figure for `O=C(Nc1ccc2c(c1)OCO2)c1ccc([N+](=O)[O-])cc1[N+](=O)[O-]` is 10.6 µg/mL (≈ 32 µM); for `O=C(COc1ccc(Oc2ccccc2)cc1)NC1CCS(=O)(=O)C1` (stereo not given) it is more than 54.2 µg/mL.
`COc1ccc(OC)c(NC(=O)Nc2cnccn2)c1` yielded a solubility (kinetic) of 3.3 µg/mL (≈ 12 µM).
The compound `CCCCN(C)Cc1c(C)[nH]c2c(ccc3ccccc32)c1=O` came in with a solubility (kinetic) of more than 46.3 µg/mL.
The same measure for `Cc1nc(-c2cccc(S(=O)(=O)N3CCCCC3)c2)cs1`: 24.3 µg/mL (≈ 75.4 µM); for `Cc1cc(C(=O)OC(C)C(=O)NC2CCCCC2C)c(C)o1` (stereo not given): 5.5 µg/mL (≈ 17.9 µM).
The figure for `CNC(=S)Nc1cccc(S(=O)(=O)NC2=NCCC2)c1` is 45.7 µg/mL (≈ 146 µM).
Regarding `CCn1ncc(N2CCOCC2)c(Cl)c1=O`, the solubility (kinetic) is more than 36.6 µg/mL.
The same measure for `NC(=O)c1ccc(N2CCNC(=O)C2)c([N+](=O)[O-])c1`: more than 39.6 µg/mL.
Turning to `CC(=O)Nc1ccc(C(=O)COC(=O)c2cc(C)oc2C)c(F)c1`, the solubility (kinetic) was found to be 7.8 µg/mL (≈ 23.4 µM).
The figure for `CC1CN=C(NCc2ccccc2Cl)S1` (stereo not given) is more than 36.1 µg/mL; for `CC(=O)Nc1ccc2sccc2c1` it is 27.9 µg/mL (≈ 146 µM); for `Cc1ccc(S(=O)(=O)N2CCN(C(=O)COC(=O)c3cncc(Br)c3)CC2)c(C)c1` it is 5.3 µg/mL (≈ 10.7 µM).
The compound `CC(C)C1Oc2ccccc2N(CC(=O)N2CCOCC2)C1=O` (stereo not given) had a solubility (kinetic) of more than 47.8 µg/mL.
The same measure for `O=[N+]([O-])c1ccc2nonc2c1Nc1cccc(F)c1`: 1 µg/mL (≈ 3.65 µM); for `COc1ccc(NC(=O)CC(C)CC(=O)NCc2ccccc2)c(OC)c1` (stereo not given): 5 µg/mL (≈ 13.5 µM).
Consider `CN(C(=O)COC(=O)Cc1ccc(Cl)cc1)C1CCCCC1`, for which the kinetic solubility was more than 48.6 µg/mL.
The figure for `O=C(COC(=O)/C=C/c1ccc2c(c1)OCO2)NCc1ccccc1` is 1.5 µg/mL (≈ 4.42 µM).
In the case of `O=c1cc(C(F)(F)F)nc(SC/C=C/c2ccccc2)[nH]1`, the kinetic solubility is more than 46.8 µg/mL.
As for `CSC1=C(C#N)C(=O)NC(c2ccccc2O)S1` (stereo not given), the solubility (kinetic) was more than 41.8 µg/mL.
The compound `CC(NC(=O)/C(C#N)=C/c1ccc(OCC(=O)O)cc1)c1ccccc1` (stereo not given) displayed a solubility (kinetic) of 50.8 µg/mL (≈ 145 µM).
The figure for `O=C(O)/C=C/c1cccc(NC(=O)Nc2ccc([N+](=O)[O-])cc2)c1` is more than 49.1 µg/mL; for `C/C(=N\O)C(=O)C(CN1CCCCC1)CN1CCCCC1` it is 30.2 µg/mL (≈ 102 µM); for `COc1ccc(CNc2cc(C)ccn2)c(O)c1` it is 29.9 µg/mL (≈ 122 µM).
For `O=C1NCC(COc2ccc(Cl)cc2)O1` (stereo not given), the kinetic solubility was more than 34.1 µg/mL.
The same measure for `CCOc1ccc(CC(=O)NCCc2cnc[nH]2)cc1`: more than 41 µg/mL; for `COc1ccc(-c2[nH]c3ccccc3c2SCCN)cc1`: 31.9 µg/mL (≈ 107 µM).
The same measure for `CCOC(=O)CCCNC(=O)COC(=O)c1cccc(F)c1`: 44.4 µg/mL (≈ 143 µM); for `O=S(=O)(Nc1ccccn1)c1ccc(Br)cc1`: 37.9 µg/mL (≈ 121 µM).
The figure for `Cc1cc(C)c(NC(=O)C2=COCCO2)c(C)c1` is more than 37.1 µg/mL; for `O=C(CCl)N(CCCNC(=O)C(F)(F)F)c1ccc([N+](=O)[O-])cc1` it is more than 55.2 µg/mL.
Take `COc1ccc(CNC(=O)CC2Sc3ccccc3NC2=O)cc1` (stereo not given): the solubility (kinetic) amounted to 1.6 µg/mL (≈ 4.67 µM).
Take `Cc1ccc(NC(=O)COc2ccc(Br)cn2)cc1`: the solubility (kinetic) was 17.7 µg/mL (≈ 55.1 µM).
The same measure for `Cc1c(Cl)cccc1NC(=S)NC(=O)c1cncc(Br)c1`: 5.1 µg/mL (≈ 13.3 µM); for `Cc1cccc(Nc2nc(-c3ccc(F)cc3)cs2)n1`: less than 0.2 µg/mL; for `COCCNC(=O)C(=O)Nc1cc2c3c(c1)CCC(=O)N3CCC2`: 46.4 µg/mL (≈ 140 µM).
The figure for `CCOc1ccc(-n2c([O-])cc(=O)[nH]c2=O)cc1.[NH4+]` is 35.2 µg/mL; for `CN1C(=O)c2ccc(C(=O)Nc3ccccc3O)cc2C1=O` it is 13.1 µg/mL (≈ 44.2 µM); for `Cc1nc2ccc(NC(=O)c3ccco3)cc2nc1C` it is more than 40.1 µg/mL.
The same measure for `COc1cc(OC)nc(Oc2cccc(C(F)(F)F)c2)n1`: less than 0.3 µg/mL; for `Cc1ccccc1OP(N)(=O)Oc1ccccc1C`: more than 41.6 µg/mL; for `O=C(NC(=S)NCc1ccco1)c1ccccc1[N+](=O)[O-]`: 8.7 µg/mL (≈ 28.5 µM).
`CCCSc1nsc(NC(=O)CCC)n1`: the kinetic solubility came out at 10.8 µg/mL (≈ 44 µM).
The same measure for `O=C(COC(=O)C1COc2ccccc2O1)Nc1ccccc1OC(F)F` (stereo not given): more than 56.9 µg/mL; for `COc1ccc(S(=O)(=O)Nc2ccc(Nc3ccccc3)cc2)cc1`: 4.7 µg/mL (≈ 13.3 µM).
The same measure for `CC(OC(=O)CC1CCCCC1)C(=O)Nc1cccc(C#N)c1` (stereo not given): 37.1 µg/mL (≈ 118 µM).
The figure for `COc1ccc(C(=O)NCc2ccccn2)cc1[N+](=O)[O-]` is more than 43.1 µg/mL; for `CCOC(=O)CNC(=O)CSc1nc(-c2cccc(C)c2)ns1` it is 40.9 µg/mL (≈ 116 µM).
`O=C(Nc1ccc(Cl)cc1)Nc1ccc2c(c1)OCO2` returned a solubility (kinetic) of 0.4 µg/mL (≈ 1.38 µM).
The figure for `CC(=O)NC(C)CCc1ccccc1` (stereo not given) is more than 28.7 µg/mL.
Consider `CC(=O)Cn1ncc(N2CCOCC2)c(Cl)c1=O`, for which the kinetic solubility was more than 40.8 µg/mL.
The compound `Cc1ccc2c(c1)C1C[N+](C)(CC(=O)c3ccccc3)CCC1N2C(=O)c1ccccc1Cl.[Br-]` (stereo not given) displayed a solubility (kinetic) of 78 µg/mL.
The same measure for `Cc1ccc(-c2nc3ncccc3o2)cc1NC(=O)C(C)(C)C`: 44.4 µg/mL (≈ 144 µM).
`Oc1ccc(-c2csc(Nc3ccccn3)n2)c(O)c1` registered a kinetic solubility of 4.4 µg/mL (≈ 15.4 µM).
In turn, `COc1ccc(CNC(=O)COC(=O)CN2C(=O)C3CC=CCC3C2=O)cc1` (stereo not given) displayed a kinetic solubility of more than 58 µg/mL.
The figure for `COc1cccc2[nH]c3c(=O)[nH]cnc3c12` is more than 32.3 µg/mL.
The figure for `COC(=O)c1ccn(CC(=O)NC2CCCCC2)n1` is more than 39.8 µg/mL; for `Cc1ccc(S(=O)(=O)CCC(=O)NCCc2ccccc2)cc1` it is more than 49.7 µg/mL.
Compound `Cc1cnc(C(=O)OCC(=O)N2CC(C)CC(C)C2)cn1` (stereo not given) came in with a solubility (kinetic) of 43.3 µg/mL (≈ 149 µM).
The same measure for `CCCc1cc(C(=O)Nc2cccc([N+](=O)[O-])c2)cs1`: 1.7 µg/mL (≈ 5.86 µM); for `O=C1CN(c2nc3nonc3nc2N2CCCCC2)CCN1`: 45.2 µg/mL (≈ 149 µM).
`CC1Nc2ccc(C(=O)NC3CCCCC3)cc2NC1=O` (stereo not given) registered a solubility (kinetic) of 19.2 µg/mL (≈ 66.8 µM).
The same measure for `O=C(CN1CCOCC1)Nc1nc(-c2ccccc2)cs1`: 42.2 µg/mL (≈ 139 µM); for `O=C(CCc1nc(-c2ccccc2Cl)no1)Nc1cccnc1`: 49.3 µg/mL (≈ 150 µM); for `O=C(COC(=O)c1ccc(O)cc1O)NC1CCCCCC1`: more than 46.1 µg/mL.
The figure for `O=C(Cn1c(CO)nc2ccccc21)NC1CCCCCC1` is more than 45.2 µg/mL.
The same measure for `Cc1cccc(NC(=O)c2c(O)c3ccccc3n(C)c2=O)c1`: less than 0.3 µg/mL.

As usually defined, the solubility (kinetic) is solubility judged after dilution from a stock solution rather than from solid.
